Measurements as given in patent US20250324973A1, “Pest Control Composition and Control Method” (priority 2021, published 2025).

What was measured:
Format in all cases: in vivo
[1] = test system: small brown planthopper, susceptible line or reduced susceptible line; test: Test Example 20: spray on rice seedlings, mortality rate; details: small brown planthopper 3rd-instar larvae on rice; 0.05-200 ppm; six days
Procedure: Natural pyrethrin or MX is formulated according to the method described in the Formulation Example 1. Similarly, flupyradifuron and flupyrimin are formulated according to the method described in the Formulation Example 1, respectively. Each of the above formulations is diluted with water containing 0.05% by volume of a spreading agent (product name: Shindain (registered trademark)) so that the concentration of active ingredient may be 0.05 ppm, 0.2 ppm, 0.8 ppm, 3.1 ppm, 12.5 ppm, 50 ppm or 200 ppm. Admire water dispersible granule (Active ingredient: imidacloprid, manufactured by Bayer CropScience K.K.), TREBON emulsifiable concentrate (Active ingredient: etofenprox, manufactured by Mitsui Chemicals Agro, Inc.), PRINCE flowable (Active ingredient: fipronil, manufactured by BASF Japan Ltd.), KIRAPPU flowable (Active ingredient: ethiprole, manufactured by Bayer CropScience K.K.), and APPLAUD flowable (Active ingredient: buprofezin, manufactured by NIHON NOHYAKU CO., LTD), which are commercial products, are diluted with water containing 0.05% by volume of a spreading agent (product name: Shindain (registered trademark)), respectively so that the concentration of active ingredient may be 0.05 ppm, 0.2 ppm, 0.8 ppm, 3.1 ppm, 12.5 ppm, 50 ppm or 200 ppm. The resulting dilution is sprayed to seedlings (at the 2.5-leaf stage) of rice (Oryza sativa) planted in a container at a rate of 10 ml/seedling. After that, 20 3rd-instar larvae of small brown planthopper of a susceptible line (a line that have been bred successively in Health & Crop Sciences Research Laboratory of Sumitomo Chemical Co., Ltd.) or small brown planthopper of a reduced susceptible line (a line that have been bred successively without selection after collecting in Nagasaki prefecture in 2016) are released thereto. Six days later, the number of surviving insects is observed, and a mortality rate of insect is calculated by the formula 2). On the other hand, rice is cultivated in the same way as in the treated plot, except that the dilution containing natural pyrethrin or MX is not sprayed (this is referred to as an untreated plot).

[2] = test system: diamondback moth, susceptible line or reduced susceptible line; test: Test Example 19: spray on cabbage seedlings, mortality rate; details: diamondback moth 3rd-instar larvae on cabbage; 0.05-200 ppm; five days
Procedure: Natural pyrethrin or MX is formulated according to the method described in the Formulation Example 1. Each of the above formulations is diluted with water containing 0.05% by volume of a spreading agent (product name: Shindain (registered trademark)) so that the concentration of active ingredient may be 0.05 ppm, 0.2 ppm, 0.8 ppm, 3.1 ppm, 12.5 ppm, 50 ppm or 200 ppm. Phoenix water dispersible granule (Active ingredient: flubendiamide, manufactured by NIHON NOHYAKU CO., LTD), PREVATHON flowable 5 (Active ingredient: chlorantraniliprole, manufactured by Nissan Chemical Corporation) and BENEVIA OD (Active ingredient: cyantraniliprole, manufactured by KUMIAI CHEMICAL INDUSTRY CO., LTD.), which are commercial products, are diluted with water containing 0.05% by volume of a spreading agent (product name: Shindain (registered trademark)), respectively so that the concentration of active ingredient may be 0.05 ppm, 0.2 ppm, 0.8 ppm, 3.1 ppm, 12.5 ppm, 50 ppm or 200 ppm. The resulting dilution is sprayed to seedlings (at the 3rd to 4th true leaf unfolding stage) of cabbage (Brassicae oleracea) planted in a container at a rate of 20 ml/seedling. After that, 10 3rd-instar larvae of diamondback moth of a susceptible line (a line that have been bred successively in Health & Crop Sciences Research Laboratory of Sumitomo Chemical Co., Ltd.) or diamondback moth of a reduced susceptible line (a line that have been bred successively without selection after collecting in Kumamoto prefecture in 2016) are released thereto. Five days later, the number of surviving insects is counted, and a mortality rate of insect is calculated by formula 3). On the other hand, cabbages are cultivated in the same way as in the treated plot, except that the dilution containing natural pyrethrin or MX is not sprayed (this is referred to as an untreated plot).

[3] = test system: white-backed planthopper, susceptible line or reduced susceptible line; test: Test Example 21: spray on rice seedlings, mortality rate; details: white-backed planthopper 3rd-instar larvae on rice; 0.05-200 ppm; six days
Procedure: Natural pyrethrin or MX is formulated according to the method described in the Formulation Example 1. Each of the above formulations is diluted with water containing 0.05% by volume of a spreading agent (product name: Shindain (registered trademark)) so that the concentration of active ingredient may be 0.05 ppm, 0.2 ppm, 0.8 ppm, 3.1 ppm, 12.5 ppm, 50 ppm or 200 ppm. PRINCE flowable (Active ingredient: fipronil, manufactured by BASF Japan Ltd.) and KIRAPPU flowable (Active ingredient: ethiprole, manufactured by Bayer CropScience K.K.), which are commercial products, are diluted with water containing 0.05% by volume of a spreading agent (product name: Shindain (registered trademark)), respectively so that the concentration of active ingredient may be 0.05 ppm, 0.2 ppm, 0.8 ppm, 3.1 ppm, 12.5 ppm, 50 ppm or 200 ppm. The resulting dilution is sprayed to seedlings (at the 2.5-leaf stage) of rice planted in a container at a rate of 10 ml/seedling. […] Six days later, the number of surviving insects is observed, and a mortality rate of insect is calculated by the formula 2). […]

[4] = test system: cotton aphids, susceptible line or reduced susceptible line; test: Test Example 17: spray on cucumber seedlings, control value; details: 0.05-200 ppm, 10 ml/seedling, six days after spraying
Description: Natural pyrethrin or MX is formulated according to the method described in the Formulation Example 1. Similarly, triflumezopyrim, flupyradifuron, or flupyrimin is formulated according to the method described in the Formulation Example 1, respectively. Each dilution is obtained by diluting each of the above formulations with water containing 0.05% by volume of a spreading agent (product name: Shindain (registered trademark)) so that the concentration of active ingredient may be 0.05 ppm, 0.2 ppm, 0.8 ppm, 3.1 ppm, 12.5 ppm, 50 ppm or 200 ppm. Each dilution is obtained by diluting Admire wettable powder (Active ingredient: imidacloprid, manufactured by Bayer CropScience K.K.) and Actara water dispersible granule (Active ingredient: thiamethoxam, manufactured by Syngenta Japan K.K.), which are commercial products, with water containing 0.05% by volume of a spreading agent (product name: Shindain (registered trademark)) so that the concentration of active ingredient may be 0.05 ppm, 0.2 ppm, 0.8 ppm, 3.1 ppm, 12.5 ppm, 50 ppm or 200 ppm. Cucumber seedlings (at the second true leaf unfolding stage) planted in a container are inoculated with 30 cotton aphids (including all growth stages) which are a susceptible line (a line that have been bred successively in Health & Crop Sciences Research Laboratory of Sumitomo Chemical Co., Ltd.) or a reduced susceptible line (a line that have been bred successively without selection after collecting in Miyazaki prefecture in 2016). One day later, the resulting dilution is sprayed to the seedlings at a rate of 10 ml/seedling. On the other hand, cucumbers are cultivated in the same way as in the treated plot, except that the dilution containing natural pyrethrin or MX is not sprayed (this is referred to as an untreated plot). Six days after spraying, the number of surviving insects is observed, and a control value is calculated by formula 1).
Letters in the formula have the following meanings • Cb: The number of insects tested in the untreated plot • Cai: The number of surviving insects at the time of observation in the untreated plot • Tb: The number of tested insects in the treated plot • Tai: The number of surviving insects at the time of observation in the treated plot

[5] = test system: brown planthopper, susceptible line or reduced susceptible line; test: Test Example 18: spray on rice seedlings, mortality rate; details: brown planthopper 3rd-instar larvae on rice; 0.05-200 ppm; six days
Procedure: Natural pyrethrin or MX is formulated according to the method described in the Formulation Example 1. Similarly, flupyradifuron and flupyrimin are formulated according to the method described in the Formulation Example 4, respectively. Each of the above formulations is diluted with water containing 0.05% by volume of a spreading agent (product name: Shindain (registered trademark)) so that the concentration of active ingredient may be 0.05 ppm, 0.2 ppm, 0.8 ppm, 3.1 ppm, 12.5 ppm, 50 ppm or 200 ppm. Admire wettable powder (Active ingredient: imidacloprid, manufactured by Bayer CropScience K.K.), which is a commercial product, is diluted with water containing 0.05% by volume of a spreading agent (product name: Shindain (registered trademark)) so that the concentration of active ingredient may be 0.05 ppm, 0.2 ppm, 0.8 ppm, 3.1 ppm, 12.5 ppm, 50 ppm or 200 ppm. The resulting dilution is sprayed to seedlings (at the 2.5-leaf stage) of rice (Oryza sativa) planted in a container at a rate of 10 ml/seedling. After that, 20 3rd-instar larvae of brown planthopper of a susceptible line (a line that have been bred successively in Health & Crop Sciences Research Laboratory of Sumitomo Chemical Co., Ltd.) or brown planthopper of a reduced susceptible line (a line that have been bred successively without selection after collecting in Nagasaki prefecture in 2016) are released thereto. Six days later, the number of surviving insects is observed, and a mortality rate of insect is calculated by formula 2). On the other hand, rice is cultivated in the same way as in the treated plot, except that the dilution containing natural pyrethrin or MX is not sprayed (this is referred to as an untreated plot).

CC(C)N1C(=O)N(c2ccccc2)CS/C1=N\C(C)(C)C [buprofezin]
effect (mortality rate) on the reduced susceptible line compared with the susceptible line [1]: low compared with that on the sensitive line

CNC(=O)c1cc(Cl)cc(C)c1NC(=O)c1cc(Br)nn1-c1ncccc1Cl [chlorantraniliprole]
effect (mortality rate) on the reduced susceptible line compared with the susceptible line [2]: low compared with that on the sensitive line

CNC(=O)c1cc(C#N)cc(C)c1NC(=O)c1cc(Br)nn1-c1ncccc1Cl [cyantraniliprole]
effect (mortality rate) on the reduced susceptible line compared with the susceptible line [2]: low compared with that on the sensitive line

CC[S+]([O-])c1c(C#N)nn(-c2c(Cl)cc(C(F)(F)F)cc2Cl)c1N (centres unmarked) [ethiprole]
effect (mortality rate) on the reduced susceptible line compared with the susceptible line [1]: low compared with that on the sensitive line | effect (mortality rate) on the reduced susceptible line compared with the susceptible line [3]: low compared with that on the sensitive line

CCOc1ccc(C(C)(C)COCc2cccc(Oc3ccccc3)c2)cc1 [etofenprox]
effect (mortality rate) on the reduced susceptible line compared with the susceptible line [1]: low compared with that on the sensitive line

N#Cc1nn(-c2c(Cl)cc(C(F)(F)F)cc2Cl)c(N)c1[S+]([O-])C(F)(F)F (centres unmarked) [fipronil]
effect (mortality rate) on the reduced susceptible line compared with the susceptible line [1]: low compared with that on the sensitive line | effect (mortality rate) on the reduced susceptible line compared with the susceptible line [3]: low compared with that on the sensitive line

Cc1cc(C(F)(C(F)(F)F)C(F)(F)F)ccc1NC(=O)c1cccc(I)c1C(=O)NC(C)(C)CS(C)(=O)=O [flubendiamide]
effect (mortality rate) on the reduced susceptible line compared with the susceptible line [2]: low compared with that on the sensitive line

O=C1C=C(N(Cc2ccc(Cl)nc2)CC(F)F)CO1 [flupyradifuron]
effect (control value) on the reduced susceptible line compared with the susceptible line [4]: low compared with that on the sensitive line | effect (mortality rate) on the reduced susceptible line compared with the susceptible line [5]: low compared with that on the sensitive line | effect (mortality rate) on the reduced susceptible line compared with the susceptible line [1]: low compared with that on the sensitive line

O=C(N=c1ccccn1Cc1ccc(Cl)nc1)C(F)(F)F [flupyrimin]
effect (control value) on the reduced susceptible line compared with the susceptible line [4]: low compared with that on the sensitive line | effect (mortality rate) on the reduced susceptible line compared with the susceptible line [5]: low compared with that on the sensitive line | effect (mortality rate) on the reduced susceptible line compared with the susceptible line [1]: low compared with that on the sensitive line

O=[N+]([O-])NC1=NCCN1Cc1ccc(Cl)nc1 [imidacloprid]
effect (control value) on the reduced susceptible line compared with the susceptible line [4]: low compared with that on the sensitive line | effect (mortality rate) on the reduced susceptible line compared with the susceptible line [5]: low compared with that on the sensitive line | effect (mortality rate) on the reduced susceptible line compared with the susceptible line [1]: low compared with that on the sensitive line

CN1COCN(Cc2cnc(Cl)s2)/C1=N\[N+](=O)[O-] [thiamethoxam]
effect (control value) on the reduced susceptible line compared with the susceptible line [4]: low compared with that on the sensitive line

O=c1c(-c2cccc(C(F)(F)F)c2)c([O-])[n+](Cc2cncnc2)c2ccccn12 [triflumezopyrim]
effect (control value) on the reduced susceptible line compared with the susceptible line [4]: low compared with that on the sensitive line
